In patent US20040191842A1, “Chemopreventive and therapeutic aspects of polyphenolic compositions and assays” (Medical College of Georgia Research Institute, Inc., priority 2002, published 2004):

Tests used:
Format in all cases: cell-based, human
NS-SV-AC cells = assay: Mitochondrial SDH activity in immortalized salivary glandular cells; conditions: NS-SV-AC and two other immortalized salivary glandular cell lines
Protocol: MTT [3-(4,5-dimethylthiazol-2-yl)-2,5-diphenyl tetrazolium bromide] assay. […] Cells (1.5×10^4 cells/well) were seeded in a 96-well microplate and treated with the indicated doses of EGCG for 24 hours. After the treatment, the cells in each well were washed with 200 μl of phosphate-buffered saline (PBS), incubated with 100 μl of 2% MTT in a solution of 0.05 M Tris, 0.5 mM MgCl2, 2.5 mM CoCl2, and 0.25 M disodiumn succinate as substrate (Sigma) at 37° C. for 30 minutes. Cells were fixed in situ by the addition of 100 μl of 4% formalin in 0.2 M Tris (pH 7.7), and after a 5 minute incubation at room temperature liquid was removed and the wells were allowed to dry. Each well was rinsed with 200 μl water and cells were solubilized by the addition of 100 μl of 6.35% 0.1 N NaOH in DMSO. The colored formazan product was measured by a Thermo MAX micro plate reader (Molecular Devices Corp., Sunnyvale, Calif.) at a wavelength of 562 nm. Experiments were repeated three times with triplicate samples for each experiment.

Apaf-1 = assay: Western blot of Apaf-1 in epidermal keratinocytes; conditions: increasing concentrations of EGCG
Protocol: Western blot analysis. The keratinocytes and the mammary epithelial cells were placed in KGM-2 and MEGM, respectively, overnight prior to treatment. Cells were lysed, after 24-hour treatment, in RIPA buffer (1% NP-40, 1% sodium deoxycholate, 0.1% SDS, 0.15 M NaCl, 0.01 M sodium phosphate, pH 7.2, and 1% Trasylol) containing proteinase inhibitors (1 mM PMSF, 1 μg/ml each of aprotinin, leupeptin, and pepstatin). The concentration of protein in each sample was determined using the BioRad DC Protein Assay and spectrophotometry. 50 μg of protein from each sample and a BioRad molecular weight standard marker were run on a 10% SDS-PAGE, followed by transfer to nitrocellulose membranes. Nonspecific binding to the membranes was blocked with 10% nonfat milk. Primary polyclonal (rabbit) antibodies and a horseradish peroxidase-conjugated goat anti-rabbit secondary antibody were used in conjunction with the ECL Chemiluminescence Kit (Amersham Pharmacia Biotech, New Jersey) and membranes were exposed to radiographic films for detection. Western blots were digitized for comparison of the intensity for each band using the ImageTool image analysis software program (University of Texas Health Science Center, San Antonio, Tex.). The integrated density of each band was measured using identical 1480 pixel areas of each Apfa-1 or Actin band at a scale of densities from 0 to 255. […]

p57 (KIP2) = tested on: p57 (KIP2)
Protocol: Cell treatments. For 24 hours treatments, exponentially growing cells with 40% confluency (to minimize differentiation and spontaneous apoptosis) were either maintained in 50 μM EGCG (2.29 mg/100 ml) or 0.2 mg/ml of GTPPs in tissue culture flasks (25 cm^2). Control flasks contained cells without any treatment. To test whether BaP or NNK interfere with the induction of p57, the human keratinocytes were treated with 0.12 μM BaP, or 10 μM NNK, either alone or in combination with 50 μM EGCG. To examine the time course of p57 induction, cells were treated with 50 μM EGCG and harvested for Western analysis at 30 minutes, 2 hours, 6 hours, and 24 hours. The human keratinocytes were treated when the cell density reached 85-90% confluency (to mimic the epithelium).
In a parallel series of experiments, treatment with EGCG was performed with 30 micrograms per milliliter (μg/ml) cycloheximide added to the keratinocyte media 30 minutes prior to the addition of EGCG. The dose-response experiments were performed using EGCG concentrations at 30, 50 100, and 200 μM in the culture media for 24 hours.
Western blot analysis. Cells from different treatment groups were lysed in RIPA buffer (1% NP-40, 1% sodium deoxycholate, 0.1% SDS, 0.15 M NaCl, 0.01 M sodium phosphate, pH 7.2, and 1% Trasylol) containing proteinase inhibitors (1 mM PMSF, 1 μg/ml each of aprotinin, leupeptin, and pepstatin). The concentration of protein in each sample was determined using the BioRad DC Protein Assay and spectrophotometry. Fifty micrograms (μg) of protein from each sample and a BioRad molecular weight standard marker were run on a 10% SDS-PAGE, followed by transfer to nitrocellulose membranes. Nonspecific binding to membranes was blocked with 10% nonfat milk. Specific primary polyclonal (rabbit) antibody against p57 and a horse radish peroxidase-conjugated goat anti-rabbit secondary antibody were used in conjunction with the ECL Chemiluminescence Kit and membranes were exposed to radiographic films for detection.

O=C(O[C@@H]1Cc2c(O)cc(O)cc2O[C@@H]1c1cc(O)c(O)c(O)c1)c1cc(O)c(O)c(O)c1 [EGCG, (−)-epigallocatechin-3-gallate]
tolerance, mitochondrial SDH activity (NS-SV-AC cells): tolerant to high concentrations of EGCG
Apaf-1 levels (Apaf-1): stable basal levels of Apaf-1
p57 protein accumulation (p57 (KIP2); 50 μM EGCG or 0.2 mg/ml GTPPs, 24 h, 40% confluency): accumulated in normal human epithelial cells
EGCG-stimulated p57 protein accumulation when BaP and NNK were present (p57 (KIP2); 50 μM EGCG with 0.12 μM BaP or 10 μM NNK): still occurred
time of peak p57 expression (p57 (KIP2); 50 μM EGCG, cell density 90%): 6 h
p57 levels over 24 hours (p57 (KIP2); 100 μM or 200 μM EGCG, 90% confluency): remained high throughout the 24 hours period
